According to patent US6887896B1, “7-[(7-Alkoxy)-chrom-3-en-6-yl]-heptatrienoic acid and 7-[(3-alkoxy)-5,6-dihydronaphthalen-2-yl]-heptatrienoic acid derivatives having serum glucose reducing activity” (Allergan, Inc., priority 2003, dated 2005):

Tests used:
RXRβ = biological target: T1, RXRβ (UniProt P28704); assay: holoreceptor transactivation assay, RXRβ; type: cell-based; conditions: for EC50: holoreceptor transactivation, read-out: RXR Trans. EC50 β; for RXR Trans. efficacy (number in parentheses) β: percentage compared to the standard compound
T1 sequence (P28704 1-520): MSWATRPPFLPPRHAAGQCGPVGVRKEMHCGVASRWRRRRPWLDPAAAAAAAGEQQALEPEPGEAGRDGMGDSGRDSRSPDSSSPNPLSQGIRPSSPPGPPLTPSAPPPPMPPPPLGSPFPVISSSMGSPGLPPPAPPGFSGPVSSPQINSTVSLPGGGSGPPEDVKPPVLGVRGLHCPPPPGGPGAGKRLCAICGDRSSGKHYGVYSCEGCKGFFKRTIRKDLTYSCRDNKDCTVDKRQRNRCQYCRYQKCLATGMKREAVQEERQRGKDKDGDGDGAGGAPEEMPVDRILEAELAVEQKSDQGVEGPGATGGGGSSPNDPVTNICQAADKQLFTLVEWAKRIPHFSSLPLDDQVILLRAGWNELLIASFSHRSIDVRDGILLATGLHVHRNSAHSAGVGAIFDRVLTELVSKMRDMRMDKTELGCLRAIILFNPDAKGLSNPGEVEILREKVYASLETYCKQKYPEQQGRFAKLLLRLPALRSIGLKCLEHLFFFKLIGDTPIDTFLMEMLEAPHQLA
From the text: (§1) Specifically, one such assay is a chimeric receptor transactivation assay which tests for agonist-like activity in the R RAPE and RAR7 receptor subtypes, and which is based on work published by Feigner, P. L. and Holm, M (1989) Focus, 112 is described in detail in U.S. Pat. No. 5,455,265. The specification of U.S. Pat. No. 5,455,265 is hereby expressly incorporated by reference. A holoreceptor transactivation assay and a ligand binding assay which measure the antagonist/agonist like activity of the compounds of the invention, or their ability to bind to the several retinoid receptor subtypes, respectively, are described in published PCT Application No. WO WO93/11755 (particularly on pages 30-33 and 37-41) published on Jun. 24, 1993, the specification of which is also incorporated herein by reference. A detailed experimental procedure for holoreceptor transactivations has been described by Heyman et al. Cell 68, 397-406, (1992); Allegretto et al. J. Biol. Chem. 268, 26625-26633, and Mangelsdorf et al. The Retinoids: Biology, Chemistry and Medicine, pp 319-349, Raven Press Ltd., New York, which are expressly incorporated herein by reference. The results obtained in this assay are expressed in EC50 numbers, as they are also in the chimeric receptor transactivation assay. The results of the ligand binding assay are expressed in Ki numbers. (See Cheng et al. Biochemical Pharmacology Vol. 22 pp 3099-3108, expressly incorporated herein by reference.)
(§2) Efficacy in a transactivation assay is expressed as a percentage of the maximum potency attained by the compound compared to a standard which, in this case, is the compound named (2E,4E,1′S,2′S)-3-methyl-5-[2′-methyl-2′-(5,5,8,8-tetramethyl-5,6,7,8-tetrahydro-naphthalen-2-yl)-cyclopropyl]-penta-2,4-dienoic acid. This standard compound is described in U.S. Pat. No. 6,114,533.
(§3) The specification of this application for patent is organized in several sections in accordance with structural Formulas A through F each of which discloses a group of preferred compounds within the scope of the invention. Tables that disclose the activity of certain exemplary compounds of the invention in the above-described RXR receptor transactivation and binding assays are found in the corresponding sections. […] The transactivation data pertaining to the activation of RXR receptors were obtained in the holoreceptor assay.
(§4) Generally speaking, in the tables disclosing the results of transactivation and binding assays the numbers in parentheses indicate efficacy as a percentage compared to the standard compound, (2E,4E,1′S,2′S)-3-methyl-5-[2′-methyl-2′-(5,5,8,8-tetramethyl-5,6,7,8-tetrahydro-naphthalen-2-yl)cyclopropyl]-penta-2,4-dienoic acid and the other numbers indicate the measured EC50 and K; in nanomolar concentration.

RARβ = biological target: T2, RARβ (Homo sapiens, UniProt P10826); assay: chimeric receptor transactivation assay, RARβ; type: cell-based; conditions: for EC50: chimeric receptor transactivation, read-out: RAR Trans. EC50 β; for Emax: percentage compared to the standard compound, read-out: RAR Trans. efficacy (number in parentheses) β
T2 sequence (P10826 183-417 limits assumed): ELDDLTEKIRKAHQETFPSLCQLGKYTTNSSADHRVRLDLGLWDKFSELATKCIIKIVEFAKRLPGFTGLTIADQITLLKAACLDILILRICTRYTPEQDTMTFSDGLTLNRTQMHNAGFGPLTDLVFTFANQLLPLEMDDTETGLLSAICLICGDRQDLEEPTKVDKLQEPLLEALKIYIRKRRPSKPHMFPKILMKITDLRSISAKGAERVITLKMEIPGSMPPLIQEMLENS
From the text: as §1, §2, §3, §4

Structure (SMILES)	EC50 (RXRβ)	RXR Trans. efficacy (number in parentheses) β (RXRβ)	EC50 (RARβ)	Emax (RARβ)
CCOc1cc2c(cc1\C(C)=C(F)/C=C/C(C)=C/C(=O)O)C(C)=CCC2(C)C	12 nM	59%	316 nM	26%
CCC1=CC(C)(C)Oc2cc(OC)c(\C(C)=C/C=C/C(C)=C/C(=O)O)cc21 [Compound 42, 7-(4-Ethyl-7-methoxy-2,2-dimethyl-2H-chromen-6-yl)-3-methyl-octa-2E,4E,6Z-trienoic acid]	55 nM	98%	845 nM	34%
CC/C(=C/C=C/C(C)=C/C(=O)O)c1cc2c(cc1OC)OC(C)(C)C=C2C(C)C [Compound 44, 7-(4-Isopropyl-7-methoxy-22-dimethyl-2H-chromen-6-yl)-3-methyl-nona-2E,4E,6Z-trienoic acid]	4.4 nM	94%	75 nM	25%
CCOc1cc2c(cc1\C(=C/C=C/C(C)=C/C(=O)O)CC)C(C)=CC(C)(C)O2 [Compound 46, 7-(7-Ethoxy-2,2,4-trimethyl-2H-chromen-6-yl)-3-methyl-nona-2E,4E,6Z-trienoic acid]	> 1000 nM	–	305 nM	6%
COc1c(\C(C)=C/C=C/C(C)=C/C(=O)O)cc2c(c1Cl)OC(C)(C)C=C2C(C)C [Compound 49, 7-(8-Chloro-4-isopropyl-7-methoxy-2,2-dimethyl-2H-chromen-6-y)-3-methyl-octa-2E,4E,6Z-trienoic acid]	0.9 nM	98%	132 nM	12%
CCOc1c(\C(C)=C/C=C/C(C)=C/C(=O)O)cc2c(c1Cl)OC(C)(C)C=C2C(C)C [Compound 50, 7-(8-Chloro-4-isopropyl-7-ethoxy-2,2-dimethyl-2H-chromen-6-yl)-3-methyl-octa-2E,4E,6Z-trienoic acid]	19 nM	57%	–	–
CCOc1c(\C(=C/C=C/C(C)=C/C(=O)O)CC)cc2c(c1Cl)OC(C)(C)C=C2C(C)C [Compound 51]	88 nM	26%	–	–
CCC1=CC(C)(C)Oc2cc(OC)c(\C(C)=C(F)/C=C/C(C)=C/C(=O)O)cc21 [Compound 120, 7-(4Ethyl-7-methoxy-2,2-dimethyl-2H-chromen-6-yl)-6-fluoro-3-methyl-octa-2E,4E,6E-trienoic acid]	> 10000 nM	–	–	–
COc1cc2c(cc1\C(C)=C(F)/C=C/C(C)=C/C(=O)O)C(C(C)C)=CC(C)(C)O2 [Compound 121, (2E,4E,6E)-6-Fluoro-7-(4-isopropyl-7-methoxy-2,2-dimethyl-2H-chromen-6-yl)-3-methyl-octa-2,4,6-trienoic acid]	51 nM	72%	46600 nM	–
COc1cc2c(cc1\C(C)=C(F)/C=C/C(C)=C/C(=O)O)C(C(C)(C)C)=CC(C)(C)O2 [Compound 122, 7-(4-tert-Butyl-7-methoxy-2,2-dimethyl-2H-chromen-6-yl)-6-fluoro-3-methyl-octa-2E,4E,6E-trienoic acid]	35 nM	61%	–	–
CC/C(=C(F)/C=C/C(C)=C/C(=O)O)c1cc2c(cc1OC)OC(C)(C)C=C2C(C)(C)C [Compound 131, 7-(4-tert-Butyl-7-methoxy-2,2-dimethyl-2H-chromen-6-yl)-6-fluoro-3-methyl-nona-2E,4E,6E-trienoic acid]	64 nM	47%	116 nM	13%
CCOc1cc2c(cc1\C(CC)=C(F)/C=C/C(C)=C/C(=O)O)C(C)=CC(C)(C)O2 [Compound 132, 7-(7-Ethoxy-2,2,4-trimethyl-2H-chromen-6-yl)-6-fluoro-3-methyl-nona-2E,4E,6E-trienoic acid]	> 10000 nM	–	710 nM	8%
COc1c(\C(C)=C(F)/C=C/C(C)=C/C(=O)O)cc2c(c1Cl)OC(C)(C)C=C2C(C)C [Compound 170, 7-(8-Chloro-4-isopropyl-7-methoxy-2,2-dimethyl-2H-chromen-6-yl)-6-fluoro-3-methyl-octa-2E,4E,6E-trienoic acid]	0.8 nM	88%	–	–
CCOc1c(\C(C)=C(F)/C=C/C(C)=C/C(=O)O)cc2c(c1Cl)OC(C)(C)C=C2C(C)C [Compound 172, 7-(8-Chloro-4-isopropyl-7-ethoxy-2,2-dimethyl-2H-chromen-6-yl)-6-fluoro-3-methyl-octa-2E,4E,6E-trienoic acid]	52 nM	45%	–	–
CCOc1c(\C(CC)=C(F)/C=C/C(C)=C/C(=O)O)cc2c(c1Cl)OC(C)(C)C=C2C(C)C [Compound 173]	18 nM	21%	–	–
CC(/C=C/C(F)=C(/C)c1cc2c(c(Cl)c1OC(C)C)OC(C)(C)C=C2C(C)C)=C\C(=O)O [Compound 174]	527 nM	12%	–	–
CCOc1cc2c(cc1\C(=C/C=C/C(C)=C/C(=O)O)CC)C(C)=CCC2(C)C [Compound A-16, 7-(3-Ethoxy-5,5,8-trimethyl-5,6-dihydronaphthalen-2-yl)-3-methyl-nona-2E,4E,6Z-trienoic acid]	191 nM	37%	242 nM	21%
CCOc1cc2c(cc1\C(CC)=C(F)/C=C/C(C)=C/C(=O)O)C=CCC2(C)C [Compound A-77]	> 1000 nM	–	–	–
CCCOc1cc2c(cc1\C(C)=C(F)/C=C/C(C)=C/C(=O)O)C(C(C)C)=CCC2(C)C [Compound A-80]	–	–	80 nM	13%
CC(/C=C/C(F)=C(/C)c1cc2c(cc1OCC1CC1)C(C)(C)CC=C2C(C)C)=C\C(=O)O [Compound A-81, (2E,4E,6E)-6-Fluoro-3-(4-dimethyl-6-(cyclopropyl)methoxy-1-isopropyl-3,4-dihydronaphthalen-7-yl)-3-methyl-2,4.6-octa-trienoic acid]	–	–	203 nM	23%
CCCOc1cc2c(cc1\C(C)=C(F)/C=C/C(C)=C/C(=O)O)C(C(C)(C)C)=CCC2(C)C [Compound A-84, (2E,4E,6E)-6-Fluoro-3-(4,$dimethyl-6-n-propoxy-1-tert-butyl-3,4-dihydronaphthalen-7-yl)-3-methyl-2,4,6-octatrienoic acid]	–	–	56 nM	8%
CCOc1c(\C(C)=C(F)/C=C/C(C)=C/C(=O)O)cc2c(c1Br)C(C)(C)CC=C2C(C)C [Compound A-169, (2E,4E,6E)-7-(4-Bromo-3-ethoxy-8-isopropyl-5,5-dimethyl-5,6-dihydro-naphthalen-2-yl)-6-fluoro-3-methyl-octa-2.4,6-trienoic acid]	2.2 nM	68%	–	–
CCOc1c(\C(C)=C(F)/C=C/C(C)=C/C(=O)O)cc2c(c1Cl)C(C)(C)CC=C2C(C)C [Compound A-177, (2E,4E,6E)-7-(4-Chloro-3-ethoxy-8-isopropyl-5,5-dimethyl-5,6-dihydronaphthalen-2-yl)6-fluoro-3-methyl-octa-2,4,6-trienoic acid]	0.5 nM	66%	–	–
